Holding throughout (experiment): level (log10 ratio to DMSO vehicle control); higher = higher biomarker level / cell amount than vehicle control
Compound in assay [1]: CN(C(=O)C(F)(F)C(F)(F)C(F)(F)F)[Si](C)(C)C [N-Methyl-N-trimethylsilylheptafluorobutyramide] (in DMSO)
As for the experimental part:
(§1)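 BioMAP Diversity Plus panel of 12 human primary cell co-culture systems (3C, 4H, LPS, SAg, BT, BF4T, BE3C, CASM3C, HDF3CGF, KF3CT, MyoF, Mphg). Compounds were added 1 h before stimulation and left for 24 h (MyoF 48 h; BT 72 h for soluble read-outs or 6 d for IgG). Biomarkers were read by ELISA, cytotoxicity by SRB, PBMC viability and proliferation by Alamar Blue. Each well value was divided by the mean of 8 DMSO control wells on the same plate and log10 transformed; duplicate blinded samples were tested at 4 concentrations.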

Compound in assay [2]: C[C@@H]1C[C@H]2[C@@H]3CCC4=CC(=O)C=C[C@]4(C)[C@@]3(F)[C@@H](O)C[C@]2(C)[C@@]1(O)C(=O)COP(=O)(O)O [Dexamethasone sodium phosphate] (in DMSO)
As for the experimental part: as §1

Compound in assay [3]: O=C(O)C(F)(F)C(F)(F)C(F)(F)OC(F)(F)F [Perfluoro(4-methoxybutanoic) acid] (in DMSO)
On the procedure:
as §1

Compound in assay [4]: O=C(O)C(F)(OC(F)(F)C(F)(OC(F)(F)C(F)(OC(F)(F)C(F)(F)C(F)(F)F)C(F)(F)F)C(F)(F)F)C(F)(F)F [Perfluoro-(2,5,8-trimethyl-3,6,9-trioxadodecanoic)acid] (in DMSO)
As for the experimental part:
as §1

Compound in assay [5]: O=C(O)CCC(F)(C(F)(F)F)C(F)(F)F [4,4-bis(Trifluoromethyl)-4-fluoropropanoic acid] (in DMSO)
As for the experimental part:
as §1

Compound in assay [6]: OCC(F)(F)C(F)(F)C(F)(F)C(F)(F)C(F)(F)C(F)(F)CO [1H,1H,8H,8H-Perfluorooctane-1,8-diol] (in DMSO)
As for the experimental part: as §1

± gives the standard deviation of the averaged measurements.

In the case of MyoF:TIMP-1, the “level (log10)” value in assay [1] (6700 nM) is -0.0385 ± 0.019; in assay [1] (20000 nM), -0.027 ± 0.014; in assay [1] (60000 nM), -0.017; in assay [2] (1500 nM), -0.0965 ± 0.047; in assay [2] (4400 nM), -0.0915 ± 0.067; in assay [2] (13000 nM), -0.135 ± 0.11. Besides, the “level (log10)” value in assay [2] (40000 nM) is -0.12 ± 0.11; in assay [3] (6700 nM) it was -0.0155 ± 0.057; in assay [3] (20000 nM) it was -0.0185 ± 0.074; in assay [3] (60000 nM), -0.0135 ± 0.071; in assay [4] (1100 nM), 0.007 ± 0.0014; in assay [4] (3300 nM), 0.0155 ± 0.013. The “level (log10)” value in assay [4] (10000 nM) was 0.022 ± 0.024; in assay [5] (6700 nM) it was -0.0245 ± 0.091; in assay [5] (20000 nM), -0.042 ± 0.064; in assay [5] (60000 nM) it was -0.0345 ± 0.025; in assay [6] (6700 nM) it was -0.0125 ± 0.042; in assay [6] (20000 nM), 0.0285 ± 0.042. In addition, the “level (log10)” value in assay [6] (60000 nM) is 0.0735 ± 0.035.

For the test system MyoF:alpha-SM Actin, the “level (log10)” value was 0.0035 ± 0.0021 in assay [1] (6700 nM); -0.01 ± 0.0014 in assay [1] (20000 nM); 0.0005 ± 0.021 in assay [1] (60000 nM); 0.073 ± 0.051 in assay [2] (1500 nM); 0.084 ± 0.055 in assay [2] (4400 nM); 0.0695 ± 0.057 in assay [2] (13000 nM). Moreover, the “level (log10)” value in assay [2] (40000 nM) is 0.0745 ± 0.063; in assay [3] (6700 nM), 0.025 ± 0.028; in assay [3] (20000 nM) it was -0.0045 ± 0.028; in assay [3] (60000 nM) it was -0.002 ± 0.0057; in assay [4] (1100 nM), -0.002 ± 0.027; in assay [4] (3300 nM), -0.0105 ± 0.00071. The “level (log10)” value in assay [4] (10000 nM) was 0.002 ± 0.062; in assay [5] (6700 nM) it was 0.0205 ± 0.093; in assay [5] (20000 nM) it was 0.03 ± 0.095; in assay [5] (60000 nM), 0.0195 ± 0.079; in assay [6] (6700 nM), 0.0075 ± 0.005; in assay [6] (20000 nM), 0.0035 ± 0.011. In assay [6] (60000 nM), the “level (log10)” value is -0.005 ± 0.0028.

As to MyoF:bFGF, the “level (log10)” value in assay [1] (6700 nM) is 0.0025 ± 0.0078; in assay [1] (20000 nM), 0.012 ± 0.0042; in assay [1] (60000 nM) it was 0.0125 ± 0.012; in assay [2] (1500 nM) it was -0.035 ± 0.042; in assay [2] (4400 nM) it was -0.0165 ± 0.035; in assay [2] (13000 nM) it was -0.042 ± 0.031. In addition, the “level (log10)” value in assay [2] (40000 nM) was -0.028 ± 0.0042; in assay [3] (6700 nM), 0.001 ± 0.0042; in assay [3] (20000 nM), 0.0015 ± 0.012; in assay [3] (60000 nM), 0.015 ± 0.0042; in assay [4] (1100 nM), -0.014 ± 0.0028; in assay [4] (3300 nM), -0.0045 ± 0.0035. Also, the “level (log10)” value in assay [4] (10000 nM) came to 0.0075 ± 0.005; in assay [5] (6700 nM) it was 0.005 ± 0.025; in assay [5] (20000 nM), 0.002 ± 0.023; in assay [5] (60000 nM) it was 0.0155 ± 0.015; in assay [6] (6700 nM), 0.009 ± 0.014; in assay [6] (20000 nM), 0.0145 ± 0.0021. In addition, the “level (log10)” value in assay [6] (60000 nM) amounted to 0.014 ± 0.014.

In the case of lMphg:CCL2/MCP-1, the “level (log10)” value in assay [1] (6700 nM) was -0.023 ± 0.0085; in assay [1] (20000 nM) it was -0.019 ± 0.0028; in assay [1] (60000 nM) it was 0.002 ± 0.034; in assay [2] (1500 nM), -0.0595 ± 0.0078; in assay [2] (4400 nM), -0.103 ± 0.0064; in assay [2] (13000 nM), -0.117 ± 0.021. The “level (log10)” value in assay [2] (40000 nM) is -0.126 ± 0.0064; in assay [3] (6700 nM), -0.0195 ± 0.026; in assay [3] (20000 nM), -0.0075 ± 0.029; in assay [3] (60000 nM) it was 0.0265 ± 0.00071; in assay [4] (1100 nM), 0.0025 ± 0.012; in assay [4] (3300 nM), -0.0095 ± 0.0078. Besides, the “level (log10)” value was -0.0125 ± 0.018 in assay [4] (10000 nM); -0.01 ± 0.017 in assay [5] (6700 nM); 0.0105 ± 0.0064 in assay [5] (20000 nM); 0.011 ± 0.017 in assay [5] (60000 nM); -0.017 ± 0.0071 in assay [6] (6700 nM); -0.005 ± 0.0042 in assay [6] (20000 nM). In assay [6] (60000 nM), the “level (log10)” value is 0.008 ± 0.031.

lMphg:CCL3/MIP-1alpha: the “level (log10)” value in assay [1] (6700 nM) was -0.007 ± 0.0057; in assay [1] (20000 nM), -0.018 ± 0.011; in assay [1] (60000 nM) it was 0.0255 ± 0.032; in assay [2] (1500 nM), -0.139 ± 0.016; in assay [2] (4400 nM), -0.173 ± 0.043; in assay [2] (13000 nM) it was -0.254 ± 0.06. Moreover, the “level (log10)” value is -0.209 ± 0.055 in assay [2] (40000 nM); -0.0355 ± 0.035 in assay [3] (6700 nM); -0.038 ± 0.024 in assay [3] (20000 nM); -0.015 ± 0.021 in assay [3] (60000 nM); 0.0465 ± 0.019 in assay [4] (1100 nM); -0.003 ± 0.05 in assay [4] (3300 nM). In addition, the “level (log10)” value is 0.039 ± 0.041 in assay [4] (10000 nM); 0.03 ± 0.047 in assay [5] (6700 nM); 0.0255 ± 0.025 in assay [5] (20000 nM); 0.021 ± 0.035 in assay [5] (60000 nM); -0.023 ± 0.0014 in assay [6] (6700 nM); -0.016 ± 0.0085 in assay [6] (20000 nM). In addition, in assay [6] (60000 nM), the “level (log10)” value came to 0.018 ± 0.025.
